Source: patent publication US10485236B2, “Triazole derivatives, intermediates thereof and their use as fungicides” (Bayer CropScience Aktiengesellschaft, priority 2015, dated 2019)

Experiments:
Leptosphaeria nodorum = assay: Example J: in vivo preventive Leptosphaeria nodorum test (wheat); details: Parastagonospora nodorum, 192 h, 500 ppm of active ingredient, preventive spray, evaluated 8 days after inoculation, read-out: efficacy
Method: Example J: In Vivo Preventive Leptosphaeria nodorum Test (Wheat) [table] To produce a suitable preparation of active compound, 1 part by weight of active compound or active compound combination is mixed with the stated amounts of solvent and emulsifier, and the concentrate is diluted with water to the desired concentration. To test for preventive activity, young plants are sprayed with the preparation of active compound or active compound combination at the stated rate of application. After the spray coating has been dried, the plants are sprayed with a spore suspension of Leptosphaeria nodorum. The plants remain for 48 hours in an incubation cabinet at approximately 20° C. and a relative atmospheric humidity of approximately 100%. The plants are placed in the greenhouse at a temperature of approximately 25° C. and a relative atmospheric humidity of approximately 80%. The test is evaluated 8 days after the inoculation. 0% means an efficacy which corresponds to that of the untreated control, while an efficacy of 100% means that no disease is observed.

[1] = system: Blumeria graminis f.sp. hordei; assay: Example I: in vivo preventive Blumeria test (barley); details: 168 h, 500 ppm of active ingredient, preventive spray, evaluated 7 days after inoculation, read-out: efficacy
Method: Example I: In Vivo Preventive Blumeria Test (Barley) [table] To produce a suitable preparation of active compound, 1 part by weight of active compound or active compound combination is mixed with the stated amounts of solvent and emulsifier, and the concentrate is diluted with water to the desired concentration. To test for preventive activity, young plants are sprayed with the preparation of active compound or active compound combination at the stated rate of application. After the spray coating has been dried, the plants are dusted with spores of Blumeria graminis f.sp. hordei. The plants are placed in the greenhouse at a temperature of approximately 18° C. and a relative atmospheric humidity of approximately 80% to promote the development of mildew pustules. The test is evaluated 7 days after the inoculation. 0% means an efficacy which corresponds to that of the untreated control, while an efficacy of 100% means that no disease is observed.

Sphaerotheca fuliginea = assay: Example M: in vivo preventive test on Sphaerotheca (cucumbers); comparison of phenoxy-pyridyl compounds vs. known phenoxy-phenyl compounds; details: Podosphaera fuliginea, 168 h, rate of application 10 ppm, evaluated 7 days after inoculation, read-out: Efficacy in %
Method: Example M: In Vivo Preventive Test on Sphaerotheca (Cucumbers); Comparison of Phenoxy-pyridyl Compounds According to the Invention Vs. Known Phenoxy-phenyl Compounds [table] To produce a suitable preparation of active compound, 1 part by weight of active compound is mixed with the above stated amounts of solvent and emulsifier, and the concentrate is diluted with water to the desired concentration. To test for preventive activity, young plants are sprayed with the preparation of active compound at the stated rate of application. After the spray coating has dried on, the plants are inoculated with an aqueous spore suspension of Sphaerotheca fuliginea. The plants are then placed in a greenhouse at approximately 23° C. and a relative atmospheric humidity of approximately 70%. The test is evaluated 7 days after the inoculation. 0% means an efficacy which corresponds to that of the untreated control, while an efficacy of 100% means that no disease is observed. [table]

Botrytis cinerea = assay: Example A: in vivo preventive test on Botrytis cinerea (grey mould), gherkin; details: gherkin plants, preventive spray, evaluated 4 to 5 days after inoculation, read-out: efficacy
Method: Example A: In Vivo Preventive Test on Botrytis cinerea (Grey Mould) [table] The active ingredients are made soluble and homogenized in a mixture of Dimethyl sulfoxide/Acetone//Tween® 80 and then diluted in water to the desired concentration. The young plants of gherkin are treated by spraying the active ingredient prepared as described above. Control plants are treated only with an aqueous solution of Acetone/Dimethyl sulfoxide/Tween® 80. After 24 hours, the plants are contaminated by spraying the leaves with an aqueous suspension of Botrytis cinerea spores. The contaminated gherkin plants are incubated for 4 to 5 days at 17° C. and at 90% relative humidity. The test is evaluated 4 to 5 days after the inoculation. 0% means an efficacy which corresponds to that of the control plants while an efficacy of 100% means that no disease is observed.

Septoria tritici [2] = assay: Example C: in vivo preventive test on Septoria tritici (leaf spot on wheat); details: Zymoseptoria tritici, 576 h; 500 ppm of active ingredient; wheat plants, preventive spray; evaluated 24 days after inoculation; read-out: efficacy
Method: Example C: In Vivo Preventive Test on Septoria tritici (Leaf Spot on Wheat) [table] The active ingredients are made soluble and homogenized in a mixture of Dimethyl sulfoxide/Acetone//Tween® 80 and then diluted in water to the desired concentration. The young plants of wheat are treated by spraying the active ingredient prepared as described above. Control plants are treated only with an aqueous solution of Acetone/Dimethyl sulfoxide/Tween® 80. After 24 hours, the plants are contaminated by spraying the leaves with an aqueous suspension of Septoria tritici spores. The contaminated wheat plants are incubated for 72 hours at 18° C. and at 100% relative humidity and then for 21 days at 20° C. and at 90% relative humidity. The test is evaluated 24 days after the inoculation. 0% means an efficacy which corresponds to that of the control plants while an efficacy of 100% means that no disease is observed.

Septoria tritici [3] = assay: Example L: in vivo preventive Septoria tritici test (wheat); details: Zymoseptoria tritici, 504 h, 500 ppm of active ingredient, preventive spray, evaluated 21 days after inoculation, read-out: efficacy
Method: Example L: In Vivo Preventive Septoria tritici Test (Wheat) [table] To produce a suitable preparation of active compound, 1 part by weight of active compound or active compound combination is mixed with the stated amounts of solvent and emulsifier, and the concentrate is diluted with water to the desired concentration. To test for preventive activity, young plants are sprayed with the preparation of active compound or active compound combination at the stated rate of application. After the spray coating has been dried, the plants are sprayed with a spore suspension of Septoria tritici. The plants remain for 48 hours in an incubation cabinet at approximately 20° C. and a relative atmospheric humidity of approximately 100% and afterwards for 60 hours at approximately 15° C. in a translucent incubation cabinet at a relative atmospheric humidity of approximately 100%. The plants are placed in the greenhouse at a temperature of approximately 15° C. and a relative atmospheric humidity of approximately 80%. The test is evaluated 21 days after the inoculation. 0% means an efficacy which corresponds to that of the untreated control, while an efficacy of 100% means that no disease is observed.

[4] = Measurement of LogP values by HPLC on reversed phase columns (EEC directive 79/831 Annex V.A8); format: physicochemical; details: reversed phase HPLC column
Outline: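 Calibrated with straight-chain alkan-2-ones (3–16 carbons) of known LogP, using retention times with linear interpolation between successive alkanones. Where one method gives several LogP values, all are listed, joined by "+". Lambda-max taken from UV spectra (200–400 nm) at chromatographic peak maxima.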

[5] = method [a]: LC-UV, acidic range, 0.1% formic acid in water and acetonitrile as eluent

| SMILES | pest or weed control at 500 ppm (Leptosphaeria nodorum) | pest or weed control at 500 ppm [1] | pest or weed control at 10 ppm (Sphaerotheca fuliginea) | pest or weed control (Botrytis cinerea) | pest or weed control at 500 ppm (Septoria tritici [2]) | pest or weed control at 500 ppm (Septoria tritici [3]) | chromatographic logP [4, 5] | chromatographic logP ([4]; method [a], compounds of formula (VII), Table 4) | chromatographic logP ([4]; method [b]: LC-UV, neutral range, 0.001 molar ammonium acetate solution in water and acetonitrile as eluent) |
| --- | --- | --- | --- | --- | --- | --- | --- | --- | --- |
| CC(O)(Cn1cncn1)c1ccc(Oc2ccc(Cl)cc2)nc1C(F)(F)F (stereo not shown) [I.01, 2-[6-(4-chlorophenoxy)-2-(trifluoromethyl)-3-pyridyl]-1-(1,2,4-triazol-1-yl)propan-2-ol] | 90 to 100% | 90 to 100% | 100% | 90 to 100% | 90 to 100% | 90 to 100% | 2.88 | – | – |
| O=C(Cn1cncn1)c1ccc(Oc2ccc(Cl)cc2)nc1C(F)(F)F [VII.01, 1-[6-(4-chlorophenoxy)-2-(trifluoromethyl)-3-pyridyl]-2-(1,2,4-triazol-1-yl)ethanone] | 90 to 100% | 90 to 100% | 78% | – | 80 to 89% | 90 to 100% | – | 2.92 | – |
| Cc1ccc(Oc2ccc(C(O)Cn3cncn3)c(Cl)n2)cc1Cl (stereo not shown) [I.16] | – | – | 77% | 90 to 100% | 80 to 89% | – | 2.73 | – | – |
| OC(Cn1cncn1)c1ccc(Oc2ccc(Cl)cc2)nc1C(F)(F)F (stereo not shown) [I.03, 1-[6-(4-chlorophenoxy)-2-(trifluoromethyl)-3-pyridyl]-2-(1,2,4-triazol-1-yl)ethanol] | 80 to 89% | – | – | 90 to 100% | 90 to 100% | 90 to 100% | 2.7 | – | – |
| CC(O)(Cn1cncn1)c1ccc(Oc2ccc(C(F)F)cc2)nc1Cl (stereo not shown) [I.39] | 70 to 79% | 90 to 100% | 97% | 90 to 100% | 90 to 100% | 70 to 79% | 2.41 | – | – |
| CC(O)(Cn1cncn1)c1cnc(Oc2ccccc2)cc1Cl (stereo not shown) [I.05] | 80 to 89% | 90 to 100% | 71% | 90 to 100% | 90 to 100% | 90 to 100% | 2.1 | – | 2.06 |
| CC(O)(Cn1cncn1)c1cnc(Oc2ccc(Cl)cc2)cc1C(F)(F)F (stereo not shown) [I.02, 2-[6-(4-chlorophenoxy)-4-(trifluoromethyl)-3-pyridyl]-1-(1,2,4-triazol-1-yl)propan-2-ol] | 90 to 100% | 90 to 100% | – | – | 80 to 89% | 90 to 100% | 2.9 | – | – |
| OC(Cn1cncn1)c1cnc(Oc2ccc(S(F)(F)(F)(F)F)cc2)cc1C(F)(F)F (stereo not shown) [I.36] | 90 to 100% | 90 to 100% | 100% | – | 80 to 89% | 90 to 100% | 3.15 | – | – |
| OC(Cn1cncn1)(c1ccc(Oc2ccc(Cl)cc2)nc1C(F)(F)F)C1CC1 (stereo not shown) [I.91, 1-[6-(4-chlorophenoxy)-2-(trifluoromethyl)-3-pyridyl]-1-cyclopropyl-2-(1,2,4-triazol-1-yl)ethanol] | – | 90 to 100% | – | 90 to 100% | 90 to 100% | 80 to 89% | 3.26 | – | – |
| OC(Cn1cncn1)c1ccc(Oc2ccc(Cl)cc2)nc1Cl (stereo not shown) [I.14] | 70 to 79% | 90 to 100% | 83% | 90 to 100% | 90 to 100% | – | 2.42 | – | – |
| OC(Cn1cncn1)c1cnc(Oc2ccc(C(F)(F)F)cc2)cc1C(F)(F)F (stereo not shown) [I.47] | 90 to 100% | 90 to 100% | 100% | 80 to 89% | 90 to 100% | 90 to 100% | 2.84 | – | – |
| C[C@@](O)(Cn1cncn1)c1cnc(Oc2ccc(Cl)cc2)cc1C(F)(F)F [I.45] | 90 to 100% | 90 to 100% | 99% | 90 to 100% | 90 to 100% | 90 to 100% | 2.84 | – | – |
| CC(O)(Cn1cncn1)c1ccc(Oc2ccc(S(F)(F)(F)(F)F)cc2)nc1Cl (stereo not shown) [I.35] | 80 to 89% | 90 to 100% | 100% | – | 90 to 100% | 90 to 100% | 3.17 | – | – |
